Data from US20210236468A1, “COMPOSITION FOR PREVENTING OR TREATING CANCER, COMPRISING A VASCULAR DISRUPTING AGENT AND TAXANE COMPOUND” (Chong Kun Dang Pharmaceutical Corp., priority 2018, published 2021).
Marks after values point to notes of the source that are not given here.

What was measured:
[1] = test system: H1975 cell lines; test: Anti-cancer activity (tumor volume) in H1975 lung cancer xenograft nude mice; type: in vivo, human; details: CKD-516 3 mg/kg ip, twice a week for three weeks; for Tumor volume / tumor growth, result in words: FIG. 1, FIG. 2
Description: As a human tumor cell line, a lung cancer cell line, i.e., H1975 cell lines were purchased from the American Type Culture Collections (ATCC). One vial of the cell lines was inserted into an RPMI1640 medium (Gibco, 22400) containing a heatinactivated 10% fetal bovine serum (FBS; Gibco, 10082-742), and cultured in a 5% CO2 incubator at 37° C. The resulting cells were washed with PBS, after which a 10-fold dilution of 2.5% Trypsin-EDTA (Gibco, 15090) was added thereto, such that cells were isolated therefrom. Then, centrifugation was performed (at 1,000 rpm for 5 min), after which supernatant thereof was discarded, such that a cell suspension was obtained by means of a new medium. A survival rate was identified with a microscope to make a preparation in an amount of 1.0×10^7 cells/mL.
The five-week old male […] nude mice (Hsd: Athymic Nude-Foxn1^nu) were purchased from Saeron Bio Inc. (Gyeonggi Province in South Korea).
Thus prepared tumor cell lines were subcutaneously (sc) injected by 0.2 ml (2×10^6 cells) into a back of the mice by using a 26-gauge needle syringe. In about three to four weeks after the injection, animals whose tumor sizes reached 170 mm^3 to 220 mm^3 were selected and used for an experiment.
A comparison between a positive control group and groups dosed with a test substance with regard to a negative control group, and a comparison between the positive control group and the groups dosed with a test substance were verified through One-way ANOVA. At this time, assuming that significance was accepted, a post-hoc test was performed with Duncan test, if an equal variance was accepted, and with Dunnett's test, if the equal variance was not accepted. If p-value is 0.05 or less, significance was accepted, and SPSS 10.1, a statistical program in common use, was used.

[2] = test system: A-549 cancer cell lines; test: Anti-cancer activity (tumor volume) in A-549 lung cancer xenograft Balb/c nude mice; type: in vivo, human; details: A549 xenograft, docetaxel 2.5 mg/kg ip once a week, CKD-516 4 mg/kg po daily, eight weeks, FIG. 3, FIG. 4
Description: A-549 cancer cell lines (1×10^7 cells), which are human lung cancer cell lines purchased from the ATCC, were subcutaneously injected into the mice. Particularly, a needle point was inserted into mice in the left side before injecting cancer cells, and moved from side to side to inject the cancer cells and to identify that an administered solution was not leaked out, such that a tumorigenesis was observed. Animals whose tumor sizes reached 100 mm^3 to 250 mm^3 were selected and used for an experiment.
Experimental groups were randomly divided as shown in the table 3 above. • Vehicle: Daily for eight weeks, oral administration; • Docetaxel: 2.5 mg/kg, once a week for eight weeks, intraperitoneal administration; • CKD-516: 4 mg/kg, daily for eight weeks, oral administration; and • CKD-516+Docetaxel: CKD-516 (4 mg/kg, daily for eight weeks, oral administration) to be administered first+Docetaxel (2.5 mg/kg, once a week for eight weeks, intraperitoneal administration).
For the tumor volume, statistical processing was performed by using a statistical processing program (GraphPad PRISM® Version 5.0, GraphPad Software, the U.S.).

[3] = test system: H460 cancer cell lines; test: Anti-cancer activity (tumor volume) in H460 lung cancer tissue-transplanted Balb/c nude mice; details: H460 tumor transplant, paclitaxel 20 mg/kg iv, CKD-516 2.5 mg/kg ip, once a week for three weeks, FIG. 5, FIG. 6
Description: The four-week old male Balb/c nude mice were purchased from Central Lab Animal Inc.
In 20 to 25 days later, the mice were subjected to euthanasia by means of cervical vertebral dislocation, after which a solid cancer proliferated in the mice was sterilely isolated therefrom to obtain fresh cancer tissues, from which connective tissues, necrotic tissues, skins, etc. were removed.
The cancer tissues were divided by 50 mg in a sterile state, and subcutaneously transplanted into the mice by using a 16-gauge trocar. In 12 days after the transplantation, the mice whose cancer tissues were proliferated up to a certain size, were selected and used for the experiment.
Paclitaxel was dissolved in an excipient (excipient 2), which was prepared by mixing cremophor, ethanol and saline at a ratio of 1:1:8, and prepared in accordance with the administered dose for each group as shown in the following table 4.
The anti-cancer activity was determined based on a tumor volume. The tumor volume was obtained by measuring a long axis and a short axis of the tumor by means of electronic callipers (CD-15CPX, Mitutoyo Corp., Japan) and calculating measured values according to a following equation (twice a week):
Tumor volume (mm^3)=(Long axis length×Short axis length^2)/2.

[4] = date 4/10, docetaxel 6 mg/kg ip
[5] = date 4/14, docetaxel 6 mg/kg ip
[6] = date 4/17, docetaxel 6 mg/kg ip
[7] = date 4/21, docetaxel 6 mg/kg ip
[8] = date 4/24 (end of experiment), docetaxel 6 mg/kg ip

SMILES | Tumor volume (mm^3), mean ([1]; date 4/7, docetaxel 6 mg/kg ip) [mm^3] | Tumor volume (mm^3), mean [1, 4] [mm^3] | Tumor volume (mm^3), mean [1, 5] [mm^3] | Tumor volume (mm^3), mean [1, 6] | Tumor volume (mm^3), mean [1, 7] | Tumor volume (mm^3), mean [1, 8] | Tumor volume / tumor growth, result in words ([1]; docetaxel 6 mg/kg ip) | Tumor volume / tumor growth, result in words [2] | Tumor volume / tumor growth, result in words [3]
CC(=O)O[C@@]12CO[C@@H]1C[C@H](O)[C@@]1(C)C(=O)[C@H](O)C3=C(C)[C@@H](OC(=O)[C@H](O)[C@@H](NC(=O)OC(C)(C)C)c4ccccc4)C[C@@](O)([C@@H](OC(=O)c4ccccc4)[C@H]21)C3(C)C [Docetaxel, docetaxel] | 123.4 | 178.0 | 309.6 | 460.5 mm^3 | 500.2*** mm^3 | 513.9*** mm^3 | a growth of the tumor was decreased over time compared to the negative control group, but the tumor volume was continuously increased | no significant difference in a growth rate of the tumor compared to the negative control group | 
COc1cc(C(=O)c2ccc(-c3csc(NC(=O)[C@@H](N)C(C)C)n3)cc2-n2cncn2)cc(OC)c1OC [CKD-516, (S)—N-(4-(3-(1H-1,2,4-triazole-1-yl)-4-(3,4,5-trimethoxybenzoyl)phenyl)thiazole-2-yl)-2-amino-3-methylbutanamide] | 121.8 | 146.3 | 321.3 | 432.4* mm^3 | 504.9 mm^3 | 790.7*** mm^3 | showed a similar tendency to the group dosed with docetaxel | the tumor did not almost grow | showed a similar tendency to the group dosed with paclitaxel
CC(=O)O[C@H]1C(=O)[C@@]2(C)[C@H]([C@H](OC(=O)c3ccccc3)[C@]3(O)C[C@H](OC(=O)[C@H](O)[C@@H](NC(=O)c4ccccc4)c4ccccc4)C(C)=C1C3(C)C)[C@]1(OC(C)=O)CO[C@@H]1C[C@@H]2O [paclitaxel] |  |  |  |  |  |  |  |  | a growth of the tumor was decreased over time compared to the negative control group, but the tumor volume was continuously increased
